These results are taken from patent publication US7695933B2, “SM38 nucleic acid molecules” (priority 2000, dated 2010).

Several values for one entry are separate records, joined by “and”; a condition that tells them apart may be missing. Equal entries are not always repeated. Where two headings read alike, the source gives them in different places. Where only a bound is given, the exact number is not on record here.

In one data set the test system is SM38. The experiment in a line: Enzyme assays and kinetics with purified recombinant soluble SM38. The settings on record: for Km / Vmax (specific activity) / kcat: 37° C., 10 mM potassium phosphate buffer pH 7.4, SM38 from Pichia pastoris. The data set is classed as biochemical, Schistosoma mansoni. As for the experimental part:
The enzyme was incubated with NAD^+ (200 μM) in buffer A (1 ml final volume) until the reaction reached 50% completion. The enzyme was eliminated by centrifugation for 10 min at 5000×g on ultrafiltration units (Vivaspin 2, Vivascience). […] The cycling reaction was then allowed to proceed in the same buffer in the presence of 0.8% ethanol, 10 mM nicotinamide, 40 μg/ml BSA, 20 μg/ml diaphorase (treated with charcoal), 20 μg/ml alcohol dehydrogenase, 10 μM FMN and 20 μM resazurin. The increase in resorufin fluorescence (excitation at 544 nm and emission at 590 nm) was measured every minute for 2 h using a fluorescence plate reader (FluoStar from BMG Labtechnologies Inc).
Aliquots were removed at different time points, treated as described above and analyzed by HPLC on a C18 column.
(§1) The transglycosidation of NADP^+ was measured by incubating recombinant soluble SM38 with 1 mM NADP^+ and 20 to 40 mM nicotinic acid at 37° C. for 20 min in a 10 mM potassium phosphate buffer, pH 6.0 or 7.4 (final volume 500 μl). The reaction mixture was analyzed by HPLC on an ion-exchange column (see below). HPLC analysis of the reaction products were performed on aliquots on a C18 column (see below).
The assays were conducted at 37° C. in buffer A in the presence of soluble recombinant enzyme using eight different substrate concentrations. […] Kinetic parameters were determined from the plots of the initial rates as a function of substrate concentration, according to Michaelis-Menten kinetics, using a non-linear regression program (GraphPad, Prism).

In data set [1] the test system is bone marrow neutrophils. The experiment in a line: Intracellular calcium measurements by flow cytometry (Fluo-3/Fura Red). The data set is classed as cell-based, mouse. As for the experimental part:
Purified bone marrow neutrophils were resuspended in cell loading media (HBSS with Ca2^+ and Mg2^++1% FBS+4 mM probenecid) at 1×10^7 cells/ml. The cells were incubated at 37° C. for 30 min with the fluorescent dyes Fluo-3 AM (4 μg/ml) and Fura Red AM (10 μg/ml) (Molecular Probes, Eugene Oreg.) and then washed twice and resuspended in cell loading medium or calcium-free medium at 1×10^6 cells/ml. In some experiments, cells were permeabilized in 5 μM digitonin in calcium-free media. […] The accumulation of [Ca^2+]i in individual cells was assessed by flow cytometry measuring the fluorescence emission of Fluo-3 in the FL-1 channel and Fura-Red in the FL-3 channel. Data was analyzed using FlowJo 3.2 (Tree Star, Inc. San Carlos, Calif.). The relative [Ca2^+]i was expressed as the ratio between Fluo-3 and Fura Red mean fluorescence intensity over time.

Data set [2] relates to bone marrow neutrophils. The experiment in a line: In vitro transwell chemotaxis assay. Format: cell-based, mouse. Particulars: for ability of neutrophils to chemotax to IL-8: WT neutrophils pre-treated with agent, IL-8 in bottom chamber. As for the experimental part:
Bone marrow neutrophils were purified (95% purity) by positive selection using biotinylated GR-1 (PharMingen) and MACS Streptavidin Microbeads (Miltenyi Biotec, Auburn Calif.). Chemotaxis assays (Falk et al., 1980 J. Immuno. Methods 33:239-247) were performed using 24-well transwell plates with a 3 μm pore size polycarbonate filter (Costar, Cambridge, Mass.). Medium (HBSS+Ca2^++Mg2^+), fMLP (1 μM, Sigma, St. Louis, Mo.), or IL-8 (100 nM, Sigma) was placed in the lower and/or upper chamber in a checkerboard format. 1×10^5 neutrophils were loaded in the upper chamber and the plates were incubated at 37° C. for 45 min. The transmigrated cells were collected from the lower chamber, fixed and counted on the flow cytometer (FACS Calibur, Becton Dickinson, San Jose Calif.). To determine the absolute number of cells in each sample, a standard number of […] size fluorescent microspheres (Polysciences, Inc. Warrington, Pa.) was added to each tube and counted along with the cells. The total number of transmigrated cells=the number of counted neutrophils×total number of beads/beads counted. […]

A further data set has as its system Mammalian cyclases. Particulars: cited from earlier work.
A further data set concerns the target Aplysia cyclase (Aplysia californica, UniProt P29241). Particulars: cited from earlier work.
Data set [3] relates to membrane-associated NAD^+ glycohydrolase/NGD^+ cyclase expressed by adult S. mansoni worms. Put plainly: NAD+ glycohydrolase / NGD+ cyclase activity of adult worm membrane microsomes.
Procedure: The enzyme was suspended in 10 mM potassium phosphate buffer, pH 7.4 (buffer A) and incubated at 37° C. with substrate (200 μl final volume). At selected times, aliquots (50 μl) were removed and enzyme activity was stopped by adding ice-cold perchloric acid (2% final concentration). After neutralization with 3.5 M K2CO3, precipitated proteins were removed by centrifugation. Product formation was then monitored by HPLC as described below. […] Product formation was then monitored by HPLC on a C18 column as described below.
Product analysis was performed by HPLC on 300×3.9 mm μBondapack C18 column (Waters Assoc., Milford Mass.). […] The elution was performed at a flow rate of 1 ml/min with a non-linear gradient starting with 100% solvent A (water). […] Peaks were identified by comparison with authentic samples and areas obtained from UV recordings were normalized using the molar extinction coefficients of the reaction products.
To prepare membrane fractions from adult S. mansoni worms, 2 g of worms were disrupted at 4° C. with a potter in 10 mM potassium phosphate buffer (pH 7.4) containing 1 mM EDTA and 0.1 mM phenylmethylsulfonyl fluoride (PMSF) as protease inhibitors. The homogenate was centrifuged at 10,000×g for 15 min and the post-mitochondrial supernatant was centrifuged at 100,000×g for 60 min to obtain the membrane microsomal fraction. […]
Data set [4] can be described thus: Transglycosidation (pyridine base exchange) by cyclase family enzymes. Format: biochemical. Particulars: SM38. As for the experimental part:
as §1

The conditions of data set [5]: other cyclase family members; cited from earlier work.

Sequence of Aplysia cyclase (P29241 25-282): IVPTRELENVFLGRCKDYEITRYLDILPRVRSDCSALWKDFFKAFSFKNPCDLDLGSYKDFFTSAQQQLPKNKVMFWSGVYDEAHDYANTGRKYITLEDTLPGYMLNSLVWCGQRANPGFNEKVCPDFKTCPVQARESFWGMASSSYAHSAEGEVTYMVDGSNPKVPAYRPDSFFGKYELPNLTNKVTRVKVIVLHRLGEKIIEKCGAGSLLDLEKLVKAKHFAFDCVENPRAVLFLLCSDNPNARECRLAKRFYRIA

In the case of `Nc1ncnc2c1ncn2[C@@H]1O[C@H](COP(=O)(O)OP(=O)(O)OCC2OC([n+]3cccc(C(=O)[O-])c3)C(O)C2O)[C@@H](O)[C@H]1OP(=O)(O)O` (stereo in doubt) [NAADP^+, nicotinic acid adenine dinucleotide phosphate], the “reduction in NAADP+ formation at pH 7.4 compared to pH 6.0” value in the data set on SM38 (transglycosidation of NADP+ with nicotinic acid) is listed as 3 fold.
Consider `N.N.N.N.N.N.N.N.N.N.N.N.N.N.[Cl-].[Cl-].[Cl-].[Cl-].[Cl-].[Cl-].[O-2].[O-2].[Ru+3].[Ru+3].[Ru+4]` [ruthenium red], for which the “block of ryanodine-induced increase in [Ca2+]” value in the data set with bone marrow neutrophils [1] (permeabilized neutrophils, calcium-free buffer) is on record as “blocked”.
For `N=c1c2nc(Br)n3c2ncn1C1OC(COP(=O)(O)OP(=O)(O)OCC2OC3C(O)C2O)C(O)C1O` (stereo not drawn) [8-Br-cADPR], the “ability of neutrophils to chemotax to IL-8” value (shortened to “ability of neutrophils”) in the data set on bone marrow neutrophils [2] is given as “absolutely no effect”. In the data set with bone marrow neutrophils [1] (WT cells preincubated with increasing concentrations, stimulated with fMLP), the “release of intracellular calcium and influx of extracellular calcium” value is given as “reduced in a dose-dependent fashion”. Besides, the “[Ca2+]i of IL-8 stimulated neutrophils” value in the data set with bone marrow neutrophils [1] (WT or CD38KO neutrophils, IL-8) is recorded as “absolutely no effect”. In addition, the “cADPR-induced intracellular calcium release after pre-treatment” value with bone marrow neutrophils [1] (permeabilized neutrophils, calcium-free buffer, stimulated with cADPR) is listed as “No calcium release”. Further, in the data set with bone marrow neutrophils [1] (thapsigargin-stimulated neutrophils), the “block of accumulation of intracellular free calcium mediated by thapsigargin” value is “unable to block”.
`O=C(O)CN(CCOCCOCCN(CC(=O)O)CC(=O)O)CC(=O)O` [EGTA]: the “ability of neutrophils” value in the data set with bone marrow neutrophils [2] is reported as “absolutely no effect”.
`NC(=O)c1ccc[n+]([C@@H]2O[C@H](COP(=O)([O-])OP(=O)(O)OC[C@H]3O[C@@H](n4cnc5c(N)ncnc54)[C@H](OP(=O)(O)O)[C@@H]3O)[C@@H](O)[C@H]2O)c1` [NADP^+]: in the data set on SM38, the Km was found to be 13.7 ± 2.9 µM, the “Vmax (specific activity)” value was 39.2 ± 1.6 µmol/min/mg and the kcat is 19.34 ± 0.79 s⁻¹. In addition, the “catalytic efficiency (kcat/Km) relative to NAD+” value in the data set on SM38 (NADP+ versus NAD+) is given as 8 fold.
Regarding cyclic GDP-ribose [cGDPR], the “Formation of cGDPR” value in the data set with SM38 (SM38), in the data set on Mammalian cyclases and on Aplysia cyclase was “yes” each time.
With `NNC(=O)c1ccncc1` [INH, isoniazid], the “Sensivity to INH” value is “INH-insensitive and no” with SM38 (SM38); “yes/no” in the data set on Mammalian cyclases.
ryanodine: the “[Ca2+]i after stimulation” value in the data set with bone marrow neutrophils [1] (neutrophils permeabilized in calcium-free buffer) is listed as “small, but reproducible, increase”.
As to `NC(=O)c1ccc[n+]([C@@H]2O[C@H](COP(=O)([O-])OP(=O)(O)OC[C@H]3O[C@@H](n4cnc5c(N)ncnc54)[C@H](O)[C@@H]3O)[C@@H](O)[C@H]2F)c1` [araF-NAD^+], the IC50 is greater than 10 µM on SM38 (SM38, read-out: Inhibition by araF-NAD^+ (IC50)) and greater than 10 µM on Aplysia cyclase (read-out: Inhibition by araF-NAD^+ (IC50)). Further, the “Inhibition by araF-NAD^+ (Ki)” value at Mammalian cyclases was “Ki nM range”.
As for `NC(=O)c1ccc[n+]([C@@H]2O[C@H](COP(=O)([O-])OP(=O)(O)OC[C@H]3O[C@@H](n4c(Br)nc5c(N)ncnc54)[C@H](O)[C@@H]3O)[C@@H](O)[C@H]2O)c1` [N(8-Br-A)D^+, nicotinamide 8-bromoadenine dinucleotide], in the data set with bone marrow neutrophils [2] (CD38KO neutrophils pre-treated), the “chemotaxis of CD38KO neutrophils to either fMLP or IL-8” value is listed as “no effect”. The “ability of neutrophils” value in the data set with bone marrow neutrophils [2] is listed as “no effect”. In the data set with bone marrow neutrophils [2] (WT neutrophils pre-treated, fMLP in bottom chamber), the “neutrophil chemotaxis to fMLP” value is recorded as “severely reduced”. Moreover, in the data set with bone marrow neutrophils [1] (WT neutrophils pretreated), the “entry of extracellular calcium in fMLP-treated neutrophils” value is “inhibited”.
For the molecule `NC(=O)c1ccc[n+]([C@@H]2O[C@H](COP(=O)([O-])OP(=O)(O)OC[C@H]3O[C@@H](n4cnc5c(N)ncnc54)[C@H](O)[C@@H]3O)[C@@H](O)[C@H]2O)c1` [NAD^+], in the data set on SM38, the Km was 38.5 ± 6.8 µM; the “Vmax (specific activity)” value is 13.2 µmol/min/mg and 13.2 ± 2.6 µmol/min/mg; the kcat turned out to be 6.51 ± 1.28 s⁻¹. In the data set on SM38 (SM38), the “Hydrolysis of NAD^+” value is listed as “yes” and the “Methanolysis of NAD^+” value was “yes”. Moreover, in the data set with Mammalian cyclases, the “Hydrolysis of NAD^+” value is on record as “yes” and the “Methanolysis of NAD^+” value is “yes”. Moreover, on Aplysia cyclase, the “Hydrolysis of NAD^+” value is on record as “very low” and the “Methanolysis of NAD^+” value is on record as “very low”. The “specific activity of non-treated membrane microsomes” value in data set [3] (14C-labeled NAD+, ADPR production by HPLC) was 36 nmol/min/mg protein.
As to `NC(=O)c1ccc[n+]([C@@H]2O[C@H](COP(=O)([O-])OP(=O)(O)OC[C@H]3O[C@@H](n4cnc5c(=O)[nH]c(N)nc54)[C@H](O)[C@@H]3O)[C@@H](O)[C@H]2O)c1` [NGD^+, nicotinamide guanine dinucleotide], in the data set on SM38, the Km was determined as 23.4 µM; the “Vmax (specific activity)” value was 4.8 µmol/min/mg and 4.8 ± 0.1 µmol/min/mg; the kcat is 2.37 ± 0.05 s⁻¹. Besides, the cyclization/hydrolysis ratio entry in the data set on SM38 (NGD+ as substrate, cGDPR vs GDPR) is reported as “approximately 6.0”. Further, the cGDPR/GDPR ratio in data set [3] (membrane microsomes incubated with NGD+) is reported as 12.

B1: SM38: CD38 homologue from the parasitic flatworm Schistosoma mansoni (protein)
chain: RHEVIFHNLLIQIMMNVILFLTLSNIFVFNSAQHQINLLSEIVQSRCTQWKVEHGATNISCSEIWNSFESILLSTHTKSACVMKSGLFDDFVYQLFELEQQQQQRHHTIQTEQYFHSQVMNIIRGMCKRLGVCRSLETTFPGYLFDELNWCNGSLTGNTKYGTVCGCDYKSNVVHAFWQSASAEYARRASGNIFVVLNGSVKAPFNENKTFGKIELPLLKHPRVQQLTVKLVHSLEDVNNRQTCESWSLQELANKLNSVHIPFRCIDDPLEFRHYQCIENPGKQLCQFSASTRSNVETLLILFPLVICLTFYTSMN
On to B1, for which the Transglycosidation result in data set [4] was “yes”.

B2: Aplysia cyclase: invertebrate Aplysia ADP-ribosyl cyclase enzyme (protein)
chain: MSPVAIVACVCLAVTLTRISPSEAIFPTPELQNVFLGRCKDYEITRYLTILPRVKSDCRALWTNFFKAFSFKAPCNLDLGSYKDFFQRAQQTLPKNKVMFWSGVYDEAHDFADDGRKYITLEDTLPGYMLNSLVWCGQRDKPGFNQKVCPDFKDCPVQARESFWGTASSSYAHSAEGDVTYMVDGSNPKVPAYRPDSFFGKYELPNLTNKVTKVKVIVLHQLGQKIIERCGAGSLLDLEMVVKAKKFGFDCVENPKSVLFLLCADNPNARECQLAKRYYRIA
modifications: A. californica
notes: invertebrate Aplysia ADP-ribosyl cyclase enzyme
In the case of B2, the Transglycosidation entry in data set [5] is on record as “yes”.
